Results published in patent US20140018384A1, “QUINOLINONE DERIVATIVES FOR USE IN THE TREATMENT OF AN AUTOIMMUNE DISEASE AND/OR AN INFLAMMATORY DISEASE” (PRONOXIS AB, priority 2011, published 2014).
Read-outs that look alike come from different tables or passages of the source.

Test system: PLB-985 cells
Assay: ROS production (isoluminol/HRP luminescence) in PLB-985 cells, Biological Example 1
Type: cell-based
Description: To cells (HL-60 or PLB-985) in HBSS medium was added compound (25 or 50 μM), isoluminol and Horse Radish Peroxidase, fraction II. Luminescence was measured for 10-30 minutes and the area under the […] curve was divided by that from a control experiment to give the activity expressed as fold change.
Each assay indicated below was performed at a different site, at a different time, by different personnel and/or using different cell lines, concentrations and controls. The cell line, concentration of example compound and control used in respect of each assay were as indicated below. The values obtained from these different setups (each using an otherwise identical assay) are given as Activity A, B, C, D or E in Table 5 below. The values are expressed as fold increase of NADPH activity in the presence of the relevant of compound (as indicated below) compared to the relevant control (as indicated below).
Activity A: HL-60 cells; 50 μM compound vs. blank Activity B: PLB-985 cells; 25 μM compound vs. blank Activity C, D and E: PLB-985 cells; 25 μM compound vs. DMSO

[1] = 25 μM compound vs. DMSO, setup E, read-out: Activity E (fold increase of NADPH activity compared to control)
[2] = 25 μM compound vs. DMSO, setup C, read-out: Activity C (fold increase of NADPH activity compared to control)
[3] = 25 μM compound vs. blank, read-out: Activity B (fold increase of NADPH activity compared to control)
[4] = 25 μM compound vs. DMSO, setup D, read-out: Activity D (fold increase of NADPH activity compared to control)

Row | SMILES | fold induction at 25 µM [1] | fold induction at 25 µM [2] | further results
1 | O=C(Cn1cc(C(=O)c2ccc3ccccc3c2)c(=O)c2cc3c(cc21)OCO3)Nc1cccc(Cl)c1 [Example 4, N-(3-chlorophenyl)-2-[6,7-methylenedioxy-3-(2-naphthoyl)-4-oxo-1-quinolinyl]acetamide] | 3.4 | – | –
2 | O=C(Cn1cc(C(=O)c2ccc(F)cc2)c(=O)c2cc3c(cc21)OCO3)Nc1ccc(Cl)cn1 [Example 33, N-(5-Chloro-2-pyridyl)-2-[3-(4-fluorobenzoyl)-6,7-methylenedioxy-4-oxo-1-quinolinyl]acetamide] | – | 45.6 | –
3 | COc1ccc2c(c1)c(=O)c(C(=O)c1ccc(F)cc1)cn2CC(=O)Nc1ccc(C(F)(F)F)cc1 [Example 38, 2-[3-(4-Fluorobenzoyl)-6-methoxy-4-oxo-1-quinolinyl]-N-(4-trifluoromethylphenyl)acetamide] | 7 | – | –
4 | CCOc1ccc(C(=O)c2cn(CC(=O)Nc3ccc(OC)cc3OC)c3cc4c(cc3c2=O)OCO4)cc1 [Example 65, N-(2,4-Dimethoxyphenyl)-2-[3-(4-ethoxybenzoyl)-6,7-methylenedioxy-4-oxo-1-quinolinyl]acetamide] | – | 2.8 | fold induction at 25 µM [3]: 4.1
5 | CCOc1ccc(C(=O)c2cn(CC(=O)Nc3ccc(F)c(F)c3)c3cc4c(cc3c2=O)OCO4)cc1 [Example 67, N-(3,4-Difluorophenyl)-2-[3-(4-ethoxybenzoyl)-6,7-methylenedioxy-4-oxo-1-quinolinyl]acetamide] | – | 1.8 | fold induction at 25 µM [3]: 2.3
6 | COc1cc2c(=O)c(C(=O)c3ccc4ccccc4c3)cn(CC(=O)Nc3ccc(Cl)cc3)c2cn1 [Example 24, N-(4-Chlorophenyl)-2-[6-methoxy-3-(2-naphthoyl)-4-oxo-(1,7-naphthyridin-1-yl)]-acetamide] | 1.7 | – | –
7 | COc1ccc2c(c1)c(=O)c(C(=O)c1ccc3ccccc3c1)cn2CC(=O)Nc1ccc(Cl)cc1 [Example 16, N-(4-Chlorophenyl)-2-[6-methoxy-3-(2-naphthoyl)-4-oxo-1-quinolinyl]acetamide] | 5.9 | – | fold induction at 25 µM [4]: 35.4
8 | COc1ccc(NC(=O)Cn2cc(C(=O)c3ccccc3)c(=O)c3cc4c(cc32)OCO4)cc1 [Example 87, N-p-Anisyl-2-(3-benzoyl-6,7-methylenedioxy-4-oxo-1-quinolinyl)acetamide] | – | 27.2 | –
9 | CCOc1ccc(NC(=O)Cn2cc(C(=O)c3ccc(CC)cc3)c(=O)c3cc4c(cc32)OCO4)cc1 [Example 71, N-(4-Ethoxyphenyl)-2-[3-(4-ethylbenzoyl)-6,7-methylenedioxy-4-oxo-1-quinolinyl]acetamide] | – | 25.1 | fold induction at 25 µM [3]: 43.6
10 | COc1cccc(NC(=O)Cn2cc(C(=O)c3ccc4ccccc4c3)c(=O)c3cc4c(cc32)OCO4)c1 [Example 3, N-m-Anisyl-2-[6,7-methylenedioxy-3-(2-naphthoyl)-4-oxo-1-quinolinyl]acetamide] | 1.8 | – | –
11 | COc1cc(NC(=O)Cn2cc(C(=O)c3ccc(Cl)cc3)c(=O)c3cc4c(cc32)OCO4)cc(OC)c1 [Example 56, 2-[3-(4-Chlorobenzoyl)-6,7-methylenedioxy-4-oxo-1-quinolinyl]-N-(3,5-dimethoxyphenyl)acetamide] | – | 4.4 | fold induction at 25 µM [3]: 6.4
12 | O=C(Cn1cc(C(=O)c2ccc(Cl)cc2)c(=O)c2cc3c(cc21)OCO3)Nc1ccc(Cl)cn1 [Example 36, 2-[3-(4-Chlorobenzoyl)-6,7-methylenedioxy-4-oxo-1-quinolinyl]-N-(5-chloro-2-pyridyl)acetamide] | – | 46.4 | –
13 | O=C(Cn1cc(C(=O)c2ccc3ccccc3c2)c(=O)c2nc(O)ccc21)Nc1ccc(Cl)cc1 [Example 22, N-(4-Chlorophenyl)-2-[6-hydroxy-3-(2-naphthoyl)-4-oxo-(1,5-naphthyridin-1-yl)]-acetamide] | 20.2 | – | –
14 | COc1ccc(NC(=O)Cn2cc(C(=O)c3ccc(F)cc3)c(=O)c3cc(F)ccc32)cc1 [Example 106, N-p-Anisyl-2-[6-fluoro-3-(4-fluorobenzoyl)-4-oxo-1-quinolinyl]acetamide] | – | – | fold induction at 25 µM [4]: 5.6
